According to ChEMBL document CHEMBL3785053, “Synthesis and screening of ursolic acid-benzylidine derivatives as potential anti-cancer agents” (Eur J Med Chem, 2016):

How the values were obtained:
[1] = Cytotoxicity against human HCT116 cells at 50 uM after 48 hrs by MTT assay; format: functional; settings: HCT-116, 48 h, read-out: GI
[2] = Cytotoxicity against human FR2 cells after 48 hrs by MTT assay; format: cell-based; settings: FR2, 48 h
[3] = Cytotoxicity against human THP1 cells at 50 uM after 48 hrs by MTT assay; format: functional; settings: THP-1, 48 h, read-out: GI
[4] = test system: A549; experiment: Cytotoxicity against human A549 cells at 50 uM after 48 hrs by MTT assay; format: functional; settings: A549, 48 h, read-out: GI
[5] = test system: MCF7; experiment: Cytotoxicity against human MCF7 cells after 48 hrs by MTT assay; format: functional, cell-based; settings: MCF7, 48 h
[6] = Cytotoxicity against human HCT116 cells after 48 hrs by MTT assay; format: functional, cell-based; settings: HCT-116, 48 h
[7] = Cytotoxicity against human FR2 cells at 50 uM after 48 hrs by MTT assay; format: cell-based; settings: read-out: GI
[8] = test system: MCF7; experiment: Cytotoxicity against human MCF7 cells at 50 uM after 48 hrs by MTT assay; format: functional; settings: MCF7, 48 h, read-out: GI
[9] = Cytotoxicity against human THP1 cells after 48 hrs by MTT assay; format: functional, cell-based; settings: THP-1, 48 h
[10] = test system: A549; experiment: Cytotoxicity against human A549 cells after 48 hrs by MTT assay; format: functional, cell-based; settings: A549, 48 h

SMILES	inhibition of growth at 50 µM [1] [%]	IC50 [2] [µM]	inhibition of growth at 50 µM [3] [%]	inhibition of growth at 50 µM [4] [%]	IC50 [5] [µM]	IC50 [6] [µM]	inhibition at 48 h, 50 µM [7] [%]	inhibition of growth at 50 µM [8] [%]	IC50 [9] [µM]	IC50 [10] [µM]
C[C@H]1[C@H](C)CC[C@]2(C(=O)O)CC[C@]3(C)C(=CC[C@@H]4[C@@]5(C)C/C(=C\c6ccc(Cl)cc6)C(=O)C(C)(C)[C@@H]5CC[C@]43C)[C@H]12	99	69	99	99	4.1	15	99	99	12	2.9
C[C@H]1[C@H](C)CC[C@]2(C(=O)O)CC[C@]3(C)C(=CC[C@@H]4[C@@]5(C)C/C(=C\c6ccc([N+](=O)[O-])cc6)C(=O)C(C)(C)[C@@H]5CC[C@]43C)[C@H]12	95	69	95	99	5	12	99	95	14	2
C[C@H]1[C@H](C)CC[C@]2(C(=O)O)CC[C@]3(C)C(=CC[C@@H]4[C@@]5(C)C/C(=C\c6ccc(Br)cc6)C(=O)C(C)(C)[C@@H]5CC[C@]43C)[C@H]12	53	35	95	60	5	32	95	98	5	15
COc1ccccc1/C=C1\C[C@]2(C)[C@H]3CC=C4[C@@H]5[C@@H](C)[C@H](C)CC[C@]5(C(=O)O)CC[C@@]4(C)[C@]3(C)CC[C@H]2C(C)(C)C1=O	98	8.6	96	90	5	2.1	85	99	0.9	0.5
C[C@H]1[C@H](C)CC[C@]2(C(=O)O)CC[C@]3(C)C(=CC[C@@H]4[C@@]5(C)C/C(=C\c6ccccc6)C(=O)C(C)(C)[C@@H]5CC[C@]43C)[C@H]12	95	70	90	60	23	14	90	98	16	18
COc1cc(OC)c(OC)cc1/C=C1\C[C@]2(C)[C@H]3CC=C4[C@@H]5[C@@H](C)[C@H](C)CC[C@]5(C(=O)O)CC[C@@]4(C)[C@]3(C)CC[C@H]2C(C)(C)C1=O	85	40	80	60	20	12	76	76	2	9
C[C@H]1[C@H](C)CC[C@]2(C(=O)O)CC[C@]3(C)C(=CC[C@@H]4[C@@]5(C)C/C(=C\c6ccc([N+](=O)[O-])cc6[N+](=O)[O-])C(=O)C(C)(C)[C@@H]5CC[C@]43C)[C@H]12	98	70	98	98	4.1	5	95	98	4.1	2
O=c1[nH]cc(F)c(=O)[nH]1 [FLUOROURACIL]	79		89	82	2	2.3		92	1.7	1.4
C[C@H]1[C@H](C)CC[C@]2(C(=O)O)CC[C@]3(C)C(=CC[C@@H]4[C@@]5(C)CC[C@H](O)C(C)(C)[C@@H]5CC[C@]43C)[C@H]12 [URSOLIC ACID]	53	31	84	61		42	66	57	9.1	
C[C@H]1[C@H](C)CC[C@]2(C(=O)O)CC[C@]3(C)C(=CC[C@@H]4[C@@]5(C)C/C(=C\c6cccc(Cl)c6)C(=O)C(C)(C)[C@@H]5CC[C@]43C)[C@H]12	90	45	85	65	29	4.1	80	70	5	7
C[C@H]1[C@H](C)CC[C@]2(C(=O)O)CC[C@]3(C)C(=CC[C@@H]4[C@@]5(C)CCC(=O)C(C)(C)[C@@H]5CC[C@]43C)[C@H]12 [URSONIC ACID]	53	24	88	78	56	2.3	86	42	13	15
C[C@H]1[C@H](C)CC[C@]2(C(=O)O)CC[C@]3(C)C(=CC[C@@H]4[C@@]5(C)C/C(=C\c6ccc(O)cc6)C(=O)C(C)(C)[C@@H]5CC[C@]43C)[C@H]12	99	70	99	98	5	15	90	98	4.1	2.1
COc1cccc(/C=C2\C[C@]3(C)[C@H]4CC=C5[C@@H]6[C@@H](C)[C@H](C)CC[C@]6(C(=O)O)CC[C@@]5(C)[C@]4(C)CC[C@H]3C(C)(C)C2=O)c1	65	40	95	84	4.2	23	85	98	12	0.65
C[C@H]1[C@H](C)CC[C@]2(C(=O)O)CC[C@]3(C)C(=CC[C@@H]4[C@@]5(C)C/C(=C\C=C\c6ccccc6)C(=O)C(C)(C)[C@@H]5CC[C@]43C)[C@H]12	98	38	93	89	12	2.1	80	99	16	0.65
C[C@H]1[C@H](C)CC[C@]2(C(=O)O)CC[C@]3(C)C(=CC[C@@H]4[C@@]5(C)C/C(=C\c6ccc7ccccc7c6)C(=O)C(C)(C)[C@@H]5CC[C@]43C)[C@H]12	89	40	98	60	21	0.53	75	90	5	16
C[C@H]1[C@H](C)CC[C@]2(C(=O)O)CC[C@]3(C)C(=CC[C@@H]4[C@@]5(C)C/C(=C\c6ccccc6[N+](=O)[O-])C(=O)C(C)(C)[C@@H]5CC[C@]43C)[C@H]12	91	44	86	64	30	5	78	73	1.1	6.4
COc1cc(/C=C2\C[C@]3(C)[C@H]4CC=C5[C@@H]6[C@@H](C)[C@H](C)CC[C@]6(C(=O)O)CC[C@@]5(C)[C@]4(C)CC[C@H]3C(C)(C)C2=O)cc(OC)c1OC	99	35	93	99	4	< 0.9	81	99	9.1	< 0.9
C[C@H]1[C@H](C)CC[C@]2(C(=O)O)CC[C@]3(C)C(=CC[C@@H]4[C@@]5(C)C/C(=C\c6cccc7ccccc67)C(=O)C(C)(C)[C@@H]5CC[C@]43C)[C@H]12	99	68	90	58	12	0.64	97	96	2.1	17
